Measured values taken from EP2330125A2 (priority 2005, dated 2007).
Read-outs that look alike come from different tables or passages of the source.

Tests used:
[1] = type: in vivo, NIH/Swiss mice; design: key to percent inhibition of food intake: "ns" means "not significant" compared to vehicle
Procedure: For studies of the effects of PPF polypeptides on longer-term (chronic) food intake and/or body composition, the amount of food consumed over a period of two weeks was measured. For these studies of the effects of PPF polypeptides on longer-term food intake and/or body composition, mice were housed singly for 1 week prior to the beginning of treatment. Throughout the experiments, food intake and body weight were monitored daily. […] At the end of each study, animals were sacrificed after a 2-4 hr fast by isoflurane overdose. Blood was collected into Na-heparin-flushed syringes by cardiac puncture, and plasma was immediately frozen. In some studies, body composition was determined using dual-energy X-ray absorptiometry (DEXA; PixiMus, GE Lunar). In some studies, body composition (such as the amounts of fat and protein) were measured pre- and post treatment using a rodent NMR machine (EchoMRI-700™), in which animals are placed in a restraining tube and placed in the NMR for 2 minutes, and the amount of fat and lean mass, in grams, is quantified.

[2] = infusions in normal men; cited from earlier work
CGRP receptors = target: T1, CGRP receptors (Homo sapiens, UniProt O60894+Q16602); type: binding
T1 construct: SK-N-MC and L6 cells expressing endogenous CGRP receptors; endogenous in cells; host or cells: SK-N-MC cell membranes

calcitonin receptor = type: binding
CT receptor = target: T2, CT receptor (Rattus norvegicus, UniProt P32214); type: cell-based
T2 construct: host or cells: 'C1A' (not explained)
T2 sequence (P32214 25-479 isoform P32214-2 limits assumed): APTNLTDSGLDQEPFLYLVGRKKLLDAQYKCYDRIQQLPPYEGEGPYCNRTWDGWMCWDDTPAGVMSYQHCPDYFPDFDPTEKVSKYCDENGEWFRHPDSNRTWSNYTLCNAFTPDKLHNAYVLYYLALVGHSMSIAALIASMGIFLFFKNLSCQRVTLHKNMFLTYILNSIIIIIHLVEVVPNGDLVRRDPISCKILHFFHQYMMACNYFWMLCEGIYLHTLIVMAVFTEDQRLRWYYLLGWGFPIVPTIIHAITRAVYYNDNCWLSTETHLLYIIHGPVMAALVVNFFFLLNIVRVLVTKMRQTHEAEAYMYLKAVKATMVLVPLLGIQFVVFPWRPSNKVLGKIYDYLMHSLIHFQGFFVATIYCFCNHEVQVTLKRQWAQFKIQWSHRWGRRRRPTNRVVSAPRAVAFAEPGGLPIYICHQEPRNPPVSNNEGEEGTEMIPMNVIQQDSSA

GLP Receptor = type: biochemical
[3] = type: in vivo, Sprague-Dawley rat (Levin DIO rats); conditions: for percent inhibition of body weight: rat DIO
Procedure: (§1) DIO male rats are obtained from Charles River Laboratories, Inc. (Wilmington, MA). […] The animals typically achieve a mean body weight of about 500 g. Levin DIO rats are habituated to caging environment for 7 days. During the 3 nights of habituation, animals receive a single intraperitoneal (IP) injection of vehicle. […] Food intake is measured by an automated food intake measuring system (BioDAQ, Research Diets) at 5 sec intervals throughout the course of the study. Body weight is recorded nightly.
Body composition was measured prior to and after drug treatment using NMR (Echo Medical Systems, Houston, TX). For body composition measurements, rats are briefly placed (~1 min) in a well-ventilated plexiglass tube that was then inserted into a specialized rodent NMR machine. This enabled the calculation of changes in actual grams of fat and dry lean tissue (e.g., grams of body fat after treatment -grams of body fat at baseline = change in grams of body fat) and changes in % body composition for fat and dry lean tissue (e.g., % body fat after treatment -% body fat at baseline = change in % body fat). All data are represented as mean ± SEM. Analysis of variance (ANOVA) and post-hoc tests were used to test for group difference. […] Graphs and results are typically presented as vehicle-corrected changes in percent body weight, body fat and changes in body protein
Values are as provided as percent inhibition of body weight after infusion for the time periods indicated.

[4] = rat, in vivo
Procedure: as §1
Values are given as percent inhibition of body weight.
Values are given as percent inhibition of body weight. […] Body Weight: ∼2% difference is statistically significant.

[5] = rat, in vivo; remark: listed apart in the source
Procedure: as §1
Values are given as percent inhibition of body weight. […] Body Weight: ∼2% difference is statistically significant. Food Intake: ∼20% difference is statistically significant.

[6] = type: in vivo, C57BL/6 mice; conditions: mouse DIO
Source text: An exemplary assay can be one that involves utilization of a diet-induced obese (DIO) mouse model for metabolic disease. […] During the study, the mice can continue to eat their high-fat diet Water can be provided ad libitum throughout the study.
DIO mice can be implanted with subcutaneous (SC) intrascapular osmotic pumps to deliver either vehicle (50% dimethylsulfoxide (DMSO) in water) or a compound of the invention.
Body weights and food intake can be measured over regular intervals throughout the study periods. Respiratory quotient (RQ, defined as CO2 production ÷ O2 consumption) and metabolic rate can be determined using whole-animal indirect calorimetry (Oxymax, Columbus Instruments, Columbus, OH). The mice can be euthanized by isoflurane overdose, and an index of adiposity (bilateral epididymal fat pad weight) measured. Moreover, prior to determination of epididymal weight, body composition (lean mass, fat mass) for each mouse can be analyzed using a Dual Energy X-ray Absorptiometry (DEXA) instrument per manufacturer's instructions (Lunar Piximus, GE Imaging System).

[7] = type: in vivo, Levin rats
Source text: Values are given as percent reduction of blood glucose level.

[8] = Gastric emptying (acetaminophen passed); type: in vivo, Levin rats
Source text: Values are given as percent inhibition of gastric emptying and percent acetaminophen passed.

T1 sequence (Q16602 23-461): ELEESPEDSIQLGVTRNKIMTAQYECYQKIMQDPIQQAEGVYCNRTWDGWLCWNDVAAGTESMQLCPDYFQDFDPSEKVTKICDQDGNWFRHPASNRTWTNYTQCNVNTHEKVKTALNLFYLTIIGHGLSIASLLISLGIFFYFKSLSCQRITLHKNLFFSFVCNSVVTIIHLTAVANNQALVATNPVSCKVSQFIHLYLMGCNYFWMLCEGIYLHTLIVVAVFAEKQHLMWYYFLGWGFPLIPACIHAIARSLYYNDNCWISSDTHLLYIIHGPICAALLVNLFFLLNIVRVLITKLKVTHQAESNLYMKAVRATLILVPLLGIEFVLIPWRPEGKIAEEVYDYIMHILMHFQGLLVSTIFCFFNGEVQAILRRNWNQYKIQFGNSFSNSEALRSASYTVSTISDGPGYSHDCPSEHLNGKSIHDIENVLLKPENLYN
T1 sequence (O60894 27-148 partner): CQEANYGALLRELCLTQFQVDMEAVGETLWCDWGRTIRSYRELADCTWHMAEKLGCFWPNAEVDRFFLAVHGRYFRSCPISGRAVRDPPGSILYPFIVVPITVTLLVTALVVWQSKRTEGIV

CCK8
percent inhibition of food intake ([1]; mouse, in vivo): ns

brain natriuretic peptide [BNP]
increase in sodium excretion [2]: 2 fold | reduction in plasma renin, angiotensin II and aldosterone secretion [2]: 50%

[Ser117, dLeu119]leptin(116-122)-Amylin(1-7)-[^11,18Arg]sCT(8-27)-Amylin(33-37) [Compound 16]
binding to the CGRP receptor (RBA = receptor binding assay) (CGRP receptors): some binding | binding to the CT receptor (RBA = receptor binding assay) (calcitonin receptor): bound | activation of the CT receptor (C1A assay) (CT receptor): able to activate | cumulative intake, % that of controls ([1]; mouse, in vivo): 34-38%

DF(P-CH2SO3)MGWNMFGKR KCNTATCATQRLANELVRLQTYPRTNVGSNTY [SEQ ID NO: 398]
IC50 (GLP Receptor; read-out: IC50 in a GLP Receptor cyclase (RIN) assay): 1000 nM

Amylin
1 Wk BW Loss ([3]; rat, in vivo): 6% | 1 Wk BW Loss [4]: 0% | FI Iinhib @ 8 hr [5]: 0%

KCNTATCATQRLANFLVRSSNNLGPVLPPTNVGSNTY [rat amylin]
IC50 (calcitonin receptor; read-out: Receptor Binding CT): 3 nM | EC50 (GLP Receptor; read-out: Receptor Activation GLP-1/GIP/CT cyclase): 5 nM | percent inhibition of food intake ([1]; 25 nmol/kg, 30 min): 46% | percent inhibition of food intake ([1]; 25 nmol/kg, 60 min): 35% | percent inhibition of food intake ([1]; 25 nmol/kg, 120 min): 21% | percent inhibition of food intake ([1]; 25 nmol/kg, 180 min): 17% | percent inhibition of food intake ([1]; 25 nmol/kg, 240 min): 7% | percent inhibition of food intake ([1]; 250 nmol/kg, 30 min): 70% | percent inhibition of food intake ([1]; 250 nmol/kg, 60 min): 53% | percent inhibition of food intake ([1]; 250 nmol/kg, 120 min): 38% | percent inhibition of food intake ([1]; 250 nmol/kg, 180 min): 30% | percent inhibition of food intake ([1]; 300 nmol/kg, 30 min): 88% | percent inhibition of food intake ([1]; 300 nmol/kg, 60 min): 90% | percent inhibition of food intake ([1]; 300 nmol/kg, 120 min): 51% | percent inhibition of food intake ([1]; 300 nmol/kg, 180 min): 21% | 60 min ED50 ([1]; Mouse Food Intake, 60 min): 9 nmol/kg | percent inhibition of body weight ([6]; infusion 30 nmol/kg/d, Day 2): 1.9% | percent inhibition of body weight ([6]; infusion 30 nmol/kg/d, Day 7): 1.5% | percent inhibition of body weight ([6]; infusion 30 nmol/kg/d, Day 14): 2.1% | percent inhibition of body weight ([6]; infusion 30 nmol/kg/d, Day 21): 2.5% | percent inhibition of body weight ([6]; infusion 30 nmol/kg/d, Day 28): 2.2% | percent inhibition of body weight ([6]; infusion 75 nmol/kg/d, Day 2): 1.5% | percent inhibition of body weight ([6]; infusion 75 nmol/kg/d, Day 7): 1.4% | percent inhibition of body weight ([6]; infusion 75 nmol/kg/d, Day 14): 2.1% | percent inhibition of body weight ([6]; infusion 100 nmol/kg/d, Day 2): 1.6% | percent inhibition of body weight ([6]; infusion 100 nmol/kg/d, Day 7): 1.8% | percent inhibition of body weight ([6]; infusion 100 nmol/kg/d, Day 14): 3.1% | percent inhibition of body weight ([6]; infusion 100 nmol/kg/d, Day 21): 3.8% | percent inhibition of body weight ([6]; infusion 100 nmol/kg/d, Day 28): 4.4% | percent inhibition of body weight ([6]; infusion 100 nmol/kg/d, Day 35): 6.9% | percent inhibition of body weight ([6]; infusion 100 nmol/kg/d, Day 42): 8.6% | percent inhibition of body weight ([6]; infusion 100 nmol/kg/d, Day 49): 9.6% | percent inhibition of body weight ([6]; infusion 100 nmol/kg/d, Day 63): 10.3% | percent inhibition of body weight ([6]; infusion 100 nmol/kg/d, Day 70): 11.4% | percent inhibition of body weight ([6]; infusion 100 nmol/kg/d, Day 77): 12% | percent inhibition of body weight ([6]; infusion 100 nmol/kg/d, Day 84): 13.4% | percent inhibition of body weight ([6]; infusion 300 nmol/kg/d, Day 2): 1.1% | percent inhibition of body weight ([6]; infusion 300 nmol/kg/d, Day 7): -0.7% | percent inhibition of body weight ([6]; infusion 300 nmol/kg/d, Day 14): -0.9% | percent inhibition of body weight ([6]; infusion 300 nmol/kg/d, Day 21): -1.5% | percent inhibition of body weight ([6]; infusion 300 nmol/kg/d, Day 28): -1.5% | percent inhibition of body weight ([3]; infusion 0.7 nmol/kg/d, Day 7): 1.6% | percent inhibition of body weight ([3]; infusion 0.7 nmol/kg/d, Day 14): 1.3% | percent inhibition of body weight ([3]; infusion 0.7 nmol/kg/d, Day 21): 1.6% | percent inhibition of body weight ([3]; infusion 0.7 nmol/kg/d, Day 28): 2.1% | percent inhibition of body weight ([3]; infusion 7 nmol/kg/d, Day 7): 5.7% | percent inhibition of body weight ([3]; infusion 7 nmol/kg/d, Day 14): 7.3% | percent inhibition of body weight ([3]; infusion 7 nmol/kg/d, Day 21): 7.9% | percent inhibition of body weight ([3]; infusion 7 nmol/kg/d, Day 28): 8.3% | percent inhibition of body weight ([3]; infusion 18.4 nmol/kg/d, Day 7): 5.9% | percent inhibition of body weight ([3]; infusion 18.4 nmol/kg/d, Day 14): 7.5% | percent inhibition of body weight ([3]; infusion 18.4 nmol/kg/d, Day 21): 6.7% | percent inhibition of body weight ([3]; infusion 18.4 nmol/kg/d, Day 28): 6.5% | percent inhibition of body weight ([3]; infusion 23 nmol/kg/d, Day 7): 7.8% | percent inhibition of body weight ([3]; infusion 23 nmol/kg/d, Day 14): 9.4% | percent inhibition of body weight ([3]; infusion 23 nmol/kg/d, Day 21): 8.8% | percent inhibition of body weight ([3]; infusion 23 nmol/kg/d, Day 28): 8.8% | percent inhibition of body weight ([3]; infusion 23 nmol/kg/d, Day 35): 9.5% | percent inhibition of body weight ([3]; infusion 23 nmol/kg/d, Day 42): 10% | percent inhibition of body weight ([3]; infusion 23 nmol/kg/d, Day 49): 9.8% | percent inhibition of body weight ([3]; infusion 23 nmol/kg/d, Day 56): 9.1% | percent inhibition of body weight ([3]; infusion 69 nmol/kg/d, Day 7): 7.6% | percent inhibition of body weight ([3]; infusion 69 nmol/kg/d, Day 14): 9.3% | percent inhibition of body weight ([3]; infusion 69 nmol/kg/d, Day 21): 11.1% | percent inhibition of body weight ([3]; infusion 69 nmol/kg/d, Day 28): 12.2% | percent inhibition of body weight ([3]; infusion 69 nmol/kg/d, Day 49): 15.4% | percent inhibition of body weight ([3]; infusion 69 nmol/kg/d, Day 56): 15.7% | percent inhibition of body weight ([3]; infusion 69 nmol/kg/d, Day 63): 16.2% | percent inhibition of body weight ([3]; infusion 69 nmol/kg/d, Day 70): 15.8% | percent inhibition of body weight ([3]; infusion 70 nmol/kg/d, Day 7): 7.6% | percent inhibition of body weight ([3]; infusion 70 nmol/kg/d, Day 14): 8.9% | percent inhibition of body weight ([3]; infusion 70 nmol/kg/d, Day 21): 10.2% | percent inhibition of body weight ([3]; infusion 70 nmol/kg/d, Day 28): 11.8% | %Reduction of blood glucose, OGTT, 30 ([7]; 23 nmol/kg/d, day 26): 2.3% | %Reduction of blood glucose, OGTT, 60 ([7]; 23 nmol/kg/d, day 26): 19.2% | %Reduction of blood glucose, OGTT, 120 ([7]; 23 nmol/kg/d, day 26): 2.1% | %Reduction of blood glucose, OGTT, Basal ([7]; 23 nmol/kg/d, day 26): 4% | %Reduction of blood glucose, OGTT, 15 ([7]; 69 nmol/kg/d, day 14): -0.2% | %Reduction of blood glucose, OGTT, 30 ([7]; 69 nmol/kg/d, day 14): 11% | %Reduction of blood glucose, OGTT, 60 ([7]; 69 nmol/kg/d, day 14): 5.9% | %Reduction of blood glucose, OGTT, 120 ([7]; 69 nmol/kg/d, day 14): 1.2% | %Reduction of blood glucose, OGTT, Basal ([7]; 69 nmol/kg/d, day 14): 6% | %inhibition of gastric emptying ([8]; 69 nmol/kg/d, 21 days on study): 45% | %passed (acetaminophen) ([8]; 69 nmol/kg/d, 21 days on study): 55% | %inhibition of gastric emptying ([8]; 100 µg/kg/d, 26 days on study): 24% | %passed (acetaminophen) ([8]; 100 µg/kg/d, 26 days on study): 76%
